From the supplement of paper PMC9663587

Experiments:
Assay in all cases: increase in dead-cell fraction, 72 h; higher = more death;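 note: breast cancer cell lines in 384-well plates, stained with Hoechst plus LIVE/DEAD far red dye and imaged, cells above an LDR intensity threshold counted dead, Hoechst-negative corpses included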
AZD1775 = compound: C=CCn1c(=O)c2cnc(Nc3ccc(N4CCN(C)CC4)cc3)nc2n1-c1cccc(C(C)(C)O)n1 [AZD1775]
BSJ-01-175 = compound: CN(C)C/C=C/C(=O)Nc1ccc(O[C@@H]2CCC[C@@H](Nc3ncc(Cl)c(-c4c[nH]c5ccccc45)n3)C2)cc1 [BSJ-01-175]
AZD5363 = compound: NC1(C(=O)N[C@@H](CCO)c2ccc(Cl)cc2)CCN(c2nc[nH]c3nccc2-3)CC1 [AZD5363]
Ipatasertib/GDC0068 = compound: CC(C)NC[C@@H](C(=O)N1CCN(c2ncnc3c2[C@H](C)C[C@H]3O)CC1)c1ccc(Cl)cc1 [Ipatasertib/GDC0068]
Olaparib/AZD2281 = compound: O=C(c1cc(Cc2n[nH]c(=O)c3ccccc23)ccc1F)N1CCN(C(=O)C2CC2)CC1 [Olaparib/AZD2281]
[1] = compound: Cc1nn(C)c(COc2ccc(N3CCN(S(=O)(=O)N(C)C)CC3)cc2)c1-c1cccc2c(CCCOc3cccc4ccccc34)c(C(=O)O)n(CCN3CCOCC3)c12
[2] = compound: CNc1nc(-c2ccc3c(N)n[nH]c3c2)cc(N2C[C@@H](C(=O)NC3CCCCC3)CC[C@H]2C)n1
ABT-737 = compound: CN(C)CC[C@H](CSc1ccccc1)Nc1ccc(S(=O)(=O)NC(=O)c2ccc(N3CCN(Cc4ccccc4-c4ccc(Cl)cc4)CC3)cc2)cc1[N+](=O)[O-] [ABT-737]
Cediranib/AZD2171 = compound: COc1cc2c(Oc3ccc4[nH]c(C)cc4c3F)ncnc2cc1OCCCN1CCCC1 [Cediranib/AZD2171]
Taselisib/GDC0032 = compound: Cc1nc(-c2cn3c(n2)-c2ccc(-c4cnn(C(C)(C)C(N)=O)c4)cc2OCC3)n(C(C)C)n1 [Taselisib/GDC0032]
[3] = compound: CO[C@@H](C)Cn1c(=O)n(C)c2cnc3ccc(-c4cncc(C(C)(C)O)c4)cc3c21
[4] = compound: CCCCOc1c(C(=O)c2c(F)cc(C)cc2F)c[nH]c2nncc1-2

Cell Line: AU565
- increase in dead-cell fraction (AZD1775; 0.001 µM): 0.0224
- increase in dead-cell fraction (AZD1775; 0.003162 µM): 0.0098
- increase in dead-cell fraction (AZD1775; 0.01 µM): 0.0075
- increase in dead-cell fraction (AZD1775; 0.03162 µM): 0.029
- increase in dead-cell fraction (AZD1775; 0.1 µM): 0.0256
- increase in dead-cell fraction (AZD1775; 0.3162 µM): 0.0481
- increase in dead-cell fraction (AZD1775; 1 µM): 0.119
- increase in dead-cell fraction (AZD1775; 3.162 µM): 0.184
- increase in dead-cell fraction (AZD1775; 10 µM): 0.472
- increase in dead-cell fraction (BSJ-01-175; 0.001 µM): -0.006
- increase in dead-cell fraction (BSJ-01-175; 0.003162 µM): 0.0214
- increase in dead-cell fraction (BSJ-01-175; 0.01 µM): 0.121
- increase in dead-cell fraction (BSJ-01-175; 0.03162 µM): 0.26
- increase in dead-cell fraction (BSJ-01-175; 0.1 µM): 0.296
- increase in dead-cell fraction (BSJ-01-175; 0.3162 µM): 0.35
- increase in dead-cell fraction (BSJ-01-175; 1 µM): 0.443
- increase in dead-cell fraction (BSJ-01-175; 3.162 µM): 0.432
- increase in dead-cell fraction (BSJ-01-175; 10 µM): 0.68
- increase in dead-cell fraction (AZD5363; 0.001 µM): -0.0047
- increase in dead-cell fraction (AZD5363; 0.003162 µM): 0.0058
- increase in dead-cell fraction (AZD5363; 0.01 µM): 0.0054
- increase in dead-cell fraction (AZD5363; 0.03162 µM): 0.0087
- increase in dead-cell fraction (AZD5363; 0.1 µM): 0.0196
- increase in dead-cell fraction (AZD5363; 0.3162 µM): -0.0036
- increase in dead-cell fraction (AZD5363; 1 µM): 0.0183
- increase in dead-cell fraction (AZD5363; 3.162 µM): 0.0124
- increase in dead-cell fraction (AZD5363; 10 µM): 0.0512
- increase in dead-cell fraction (Ipatasertib/GDC0068; 0.001 µM): 0.0001
- increase in dead-cell fraction (Ipatasertib/GDC0068; 0.003162 µM): 0.0023
- increase in dead-cell fraction (Ipatasertib/GDC0068; 0.01 µM): -0.0023
- increase in dead-cell fraction (Ipatasertib/GDC0068; 0.03162 µM): -0.0006
- increase in dead-cell fraction (Ipatasertib/GDC0068; 0.1 µM): 0.0018
- increase in dead-cell fraction (Ipatasertib/GDC0068; 0.3162 µM): 0.0082
- increase in dead-cell fraction (Ipatasertib/GDC0068; 1 µM): 0.0032
- increase in dead-cell fraction (Ipatasertib/GDC0068; 3.162 µM): 0.0084
- increase in dead-cell fraction (Ipatasertib/GDC0068; 10 µM): 0.0293
- increase in dead-cell fraction (Olaparib/AZD2281; 0.001 µM): -0.0007
- increase in dead-cell fraction (Olaparib/AZD2281; 0.003162 µM): -0.0016
- increase in dead-cell fraction (Olaparib/AZD2281; 0.01 µM): 0.0011
- increase in dead-cell fraction (Olaparib/AZD2281; 0.03162 µM): -0.0026
- increase in dead-cell fraction (Olaparib/AZD2281; 0.1 µM): 0.0033
- increase in dead-cell fraction (Olaparib/AZD2281; 0.3162 µM): -0.0012
- increase in dead-cell fraction (Olaparib/AZD2281; 1 µM): -0.006
- increase in dead-cell fraction (Olaparib/AZD2281; 3.162 µM): -0.0026
- increase in dead-cell fraction (Olaparib/AZD2281; 10 µM): 0.0043
- increase in dead-cell fraction ([1]; 0.001 µM): 0.0054
- increase in dead-cell fraction ([1]; 0.003162 µM): 0.0034
- increase in dead-cell fraction ([1]; 0.01 µM): 0.0061
- increase in dead-cell fraction ([1]; 0.03162 µM): 0.0001
- increase in dead-cell fraction ([1]; 0.1 µM): 0.0007
- increase in dead-cell fraction ([1]; 0.3162 µM): -0.0037
- increase in dead-cell fraction ([1]; 1 µM): 0.0003
- increase in dead-cell fraction ([1]; 3.162 µM): 0.0012
- increase in dead-cell fraction ([1]; 10 µM): 0.0111
- increase in dead-cell fraction ([2]; 0.001 µM): -0.0175
- increase in dead-cell fraction ([2]; 0.003162 µM): 0.001
- increase in dead-cell fraction ([2]; 0.01 µM): 0.0046
- increase in dead-cell fraction ([2]; 0.03162 µM): 0.0008
- increase in dead-cell fraction ([2]; 0.1 µM): 0.0065
- increase in dead-cell fraction ([2]; 0.3162 µM): 0.0014
- increase in dead-cell fraction ([2]; 1 µM): 0.0253
- increase in dead-cell fraction ([2]; 3.162 µM): 0.0252
- increase in dead-cell fraction ([2]; 10 µM): 0.0432
- increase in dead-cell fraction (ABT-737; 0.001 µM): 0.0066
- increase in dead-cell fraction (ABT-737; 0.003162 µM): 0.0005
- increase in dead-cell fraction (ABT-737; 0.01 µM): 0.0025
- increase in dead-cell fraction (ABT-737; 0.03162 µM): -0.0006
- increase in dead-cell fraction (ABT-737; 0.1 µM): 0.0014
- increase in dead-cell fraction (ABT-737; 0.3162 µM): 0.0008
- increase in dead-cell fraction (ABT-737; 1 µM): 0.0066
- increase in dead-cell fraction (ABT-737; 3.162 µM): 0.0073
- increase in dead-cell fraction (ABT-737; 10 µM): 0.0507
- increase in dead-cell fraction (Cediranib/AZD2171; 0.001 µM): 0.0037
- increase in dead-cell fraction (Cediranib/AZD2171; 0.003162 µM): 0.0046
- increase in dead-cell fraction (Cediranib/AZD2171; 0.01 µM): 0.0016
- increase in dead-cell fraction (Cediranib/AZD2171; 0.03162 µM): 0.0034
- increase in dead-cell fraction (Cediranib/AZD2171; 0.1 µM): -0.0003
- increase in dead-cell fraction (Cediranib/AZD2171; 0.3162 µM): -0.0061
- increase in dead-cell fraction (Cediranib/AZD2171; 1 µM): -0.0046
- increase in dead-cell fraction (Cediranib/AZD2171; 3.162 µM): -0.0048
- increase in dead-cell fraction (Cediranib/AZD2171; 10 µM): 0.0027
- increase in dead-cell fraction (Taselisib/GDC0032; 0.001 µM): 0.0087
- increase in dead-cell fraction (Taselisib/GDC0032; 0.003162 µM): 0.0153
- increase in dead-cell fraction (Taselisib/GDC0032; 0.01 µM): 0.0378
- increase in dead-cell fraction (Taselisib/GDC0032; 0.03162 µM): 0.0611
- increase in dead-cell fraction (Taselisib/GDC0032; 0.1 µM): 0.0674
- increase in dead-cell fraction (Taselisib/GDC0032; 0.3162 µM): 0.0853
- increase in dead-cell fraction (Taselisib/GDC0032; 1 µM): 0.0898
- increase in dead-cell fraction (Taselisib/GDC0032; 3.162 µM): 0.0794
- increase in dead-cell fraction (Taselisib/GDC0032; 10 µM): 0.207
- increase in dead-cell fraction ([3]; 0.001 µM): 0.0299
- increase in dead-cell fraction ([3]; 0.003162 µM): 0.0425
- increase in dead-cell fraction ([3]; 0.01 µM): 0.0372
- increase in dead-cell fraction ([3]; 0.03162 µM): 0.0503
- increase in dead-cell fraction ([3]; 0.1 µM): 0.0586
- increase in dead-cell fraction ([3]; 0.3162 µM): 0.0998
- increase in dead-cell fraction ([3]; 1 µM): 0.074
- increase in dead-cell fraction ([3]; 3.162 µM): 0.091
- increase in dead-cell fraction ([3]; 10 µM): 0.511
- increase in dead-cell fraction ([4]; 0.001 µM): 0.0215
- increase in dead-cell fraction ([4]; 0.003162 µM): -0.004
- increase in dead-cell fraction ([4]; 0.01 µM): 0.0231
- increase in dead-cell fraction ([4]; 0.03162 µM): 0.0204
- increase in dead-cell fraction ([4]; 0.1 µM): 0.0353
- increase in dead-cell fraction ([4]; 0.3162 µM): 0.0286
- increase in dead-cell fraction ([4]; 1 µM): 0.0615
- increase in dead-cell fraction ([4]; 3.162 µM): 0.0772
- increase in dead-cell fraction ([4]; 10 µM): 0.136
